# Results: patent US8383626B2, “Nitric oxide donors for inducing neurogenesis” (Henry Ford Health System, priority 1999, dated 2013)
# Where “and” joins values, the source holds several entries; their conditions need not be identical. Equal values may be shown once.
# What was measured:
# Assay type in all cases: in vivo, rat
# [1] = tested on: newly formed cells (BrdU) in the subventricular zone and the dentate gyrus; assay: BrdU-positive newly formed cells in rats after embolic MCA occlusion treated with DETANONO
# Experimental: A pharmacological method to promote neurogenesis in brain was developed. Male Wistar rats were subjected to middle cerebral artery (MCA) occlusion by means of intraarterial placement of a clot at the origin of the right MCA. Animals were administered (iv/ip) nitric oxide donor compounds (DETANONO) after induction of stroke, at 24 and 48 hours (Group 1), or at 24 hours followed by daily injection (ip) of NO donor compound (Group 2). BrdU, a thymidine analog which identifies the formation of new cells, was injected (ip) daily over a period of 14 days from the onset of ischemia. Identification of cell type was determined by labeling immunoreactivity of specific cell proteins. Thus, neurons were identified by expression of NeuN, MAP2 and the astrocytes formed by GFAP. Measurements of neurogenesis were performed within specific regions of brain, the subventricular zone and the dentate gyrus.
# ischemic rats (stroke) = assay: Battery of neurological functional tests (NSS, Rotarod, footfault, adhesive removal, body weight) after stroke
# Experimental: Administration of nitric oxide donor compound (DETA/NO) to normal and ischemic rats promotes neurogenesis in non-ischemic and ischemic brains. Since then, additional experiments have been performed to test the hypothesis that neurogenesis induced by DETA/NO promotes functional improvement after stroke; the data is provided herewith. Animals were administered (iv/ip) DETA/NO at one day (Group 1) or seven days (Group 2) after induction of stroke and followed by daily injection (ip) of DETA/NO over a period of seven days. Another NO donor compound (SNAP) was administered (iv) to ischemic rats at one day and two days after stroke (Group 3). Young (3 month old) rats were used in Groups 1 and 2. Middle aged rats (10 to 12 months old) were used in Group 3. A battery of neurological functional tests were measured from two days to forty-two days after stroke. These tests included 1) Neurological severity score (NSS) which measures motor, sensory and reflex functions and is similar to the contralateral neglect testing described in humans. The higher the score, the more severe the injury; 2) Rotarod test measures fore and hindlimb motor coordination and balance. Data are presented as percentage of baseline values; 3) Footfault test measures fore and hindlimb motor coordination. The higher the number, the more severe the injury; 4) Adhesive removal test measures sensorimotor impairments. Data are presented as time (seconds). The longer the time period, the more severe the injury; 5) Animal body weight.
# [2] = tested on: newly formed cells (BrdU) in the subventricular zone and the dentate gyrus; assay: BrdU-positive newly formed cells in non-ischemic rats after single dose of DETANONO
# Experimental: Treatment of non-ischemic brain with DETANONO: Rats not subjected to any surgical procedures were treated with DETANONO. The drug was administered as a single dose (iv 0.12 mg). BrdU was injected daily for 14 days after treatment. One population (Group 3) of rats was sacrificed on the last day of BrdU injection, Another population (Group 4) was sacrificed at four weeks after the last BrdU injection. Animals which were not administered DETA-NONO were given BrdU with the identical protocol as that for the DETA-NONO treated rats (Group 5).
# [3] = tested on: focal embolic cerebral ischemic brain; assay: Ischemic lesion volume after embolic MCA occlusion; conditions: ischemic rats
# Experimental: Male Wistar rats (n=30) weighing 300-350 g were subjected to middle cerebral artery (MCA) occlusion. The MCA was occluded by placement of an embolus at the origin of the MCA. Briefly, a single intact fibrin rich 24 hour old homologous clot (about 1 μl) was placed at the origin of the MCA via a fifteen mm length of modified PE-50 catheter. The experimental protocol consisted of four groups. In Group I (control group), rats were subjected to MCA occlusion and received four consecutive intravenous bolus doses of saline (0.52 ml each, every fifteen minutes) at 24 hours after ischemia. Group II (DETNO/NO precondition) rats received four consecutive intravenous bolus doses of DETANONO (0.1 mg/kg each, every fifteen minutes, and total dose 0.4 mg/kg) at 24 hours before embolization. Group III (DETANONO two set group), animals received consecutive intravenous bolus doses of DETANONO (0.1 mg/kg each, every fifteen minutes and total dose 0.4 mg/kg) at 24 and 48 hours after occlusion. Group IV (DETANONO seven set group), animals received four consecutive intravenous bolus doses of DETANONO (0.1 mg/kg each, every fifteen minutes and total dose 0.4 mg/kg) at 24 hours after embolization. Subsequently, rats were intraperitoneally injected with DETA/NO at 0.4 mg/kg every day for six consecutive days.
smiles,measurement,setting,value
"NCCN(CCN)/[N+]([O-])=N/O [DETANONO, DETANONOate]",BrdU cells in the granule cell layer,"[1]; Group 1: treated at 24 and 48 hours after stroke, non-treated 37.3±3.6",89.5±12
same,"numbers of BrdU positive cells, subventricular zone","[1]; Group 2: 24 h after stroke then daily ip, BrdU daily 14 days, untreated 1653±91.4",2748±326
same,"numbers of BrdU positive cells, dentate gyrus granule cell layer","[1]; Group 2: 24 h after stroke then daily ip, untreated 37.3±3.6",135±18.9
same,"numbers of BrdU positive cells, dentate gyrus hilus","[1]; Group 2, untreated 10.1±2.4",43.8±10.2
same,"numbers of BrdU positive cells, dentate gyrus (second pair of values, area not named)","[1]; Group 2, untreated 34.9±2.8",53.7±6.3
same,newly formed cells within the dentate gyrus that were neurons,[1]; ischemic rats,> 90%
same,newly formed cells within the hippocampus of neuronal phenotype,"[1]; rats treated with DETANONO and subjected to strokes, estimated",more than 90%
same,animal body weight,"ischemic rats (stroke); Group 1: from one day after stroke, daily ip over seven days, vs control",Significant improvements
same,"motor and sensorimotor functions (Rotarod, Adhesive Removal, NSS tests)","ischemic rats (stroke); Group 1: from one day after stroke, daily ip over seven days, young rats, vs control",Significant improvements
same,"neurological function, Rotarod test","ischemic rats (stroke); Group 2: from seven days after stroke, at 28 and 42 days after stroke, only this test",significant improvement
same,"BrdU cells, subventricular zones (two values, sides not given)","[2]; Group 3: single dose iv 0.12 mg, sacrificed on last day of BrdU injection, Group 5 controls 1432.6±104.6, 1655.2±102.9, in cells/mm2",2952±102.6 and 2725.3±115.5
same,"BrdU cells, dentate gyrus (granule cell layer)","[2]; Group 3, Group 5 control 39.9±7.26",73.7±8.11
same,"BrdU cells, subventricular zone (two values, sides not given)","[2]; Group 4: single dose iv 0.12 mg, sacrificed four weeks after last BrdU injection, controls 214.6±67.9, 233.1±49.2, in cells/mm2",456.5±42.3 and 518.4±67.2
same,ischemic lesion volume,[3],did not exhibit a significant reduction
